# According to patent publication US9120812B2, “Pyrimidooxazocine derivatives as mTOR-inhibitors” (SANOFI, priority 2012, dated 2015):
# Tests used:
# [1] = biological target: PI3Kα (p110α/p85α) (Homo sapiens (Human), UniProt P42336); assay: PI3Kα enzymatic test by measuring the consumption of ATP; format: biochemical
# Protocol: Model 2: PI3Kα Enzymatic Test by Measuring the Consumption of ATP.
# The test uses a lucifeurerin/luciferase system to measure the concentration of ATP and its consumption during the enzymatic reaction. The test is performed in 96-well format (Corning/Costar 96 black flat-bottomed half-wells plate, ref. 3694) in a total volume of 30 μl.
# To 1 μl of inhibitor in 100% DMSO are added (final concentrations) 50 μM of the substrate PIP2 ((L-α-phosphatidyl-D-myoinositol 4,5-bisphosphate, Echelon 117P-4516-0500), 2 μM of ATP and 1.7 μg/ml of PI3Kα, (p110α/p85α, Invitrogen PV4788) in a buffer of Tris/HCl 50 mM pH 7.5, EGTA 1 mM, MgCl2 10 mM, Chaps 0.03%, 1 mM DTT). After 90 minutes, the reaction is quenched by adding 20 μl/well of KinaseGlo reagent (Promega V6713). After 10 minutes in the dark, the luminescence is read on the PHERAStar microplate reader (reading at 0.8 sec/well).
# The IC50 values are determined by the preparation of successive threefold dilutions on at least a scale of 10 000.
# [2] = biological target: mTOR (human recombinant aa mTOR 1360-2549) (Homo sapiens (Human), UniProt P42345); assay: mTOR enzymatic test by TR-FRET (phosphorylation of GFP-4EBP1); format: biochemical
# Protocol: Model 1: mTOR Enzymatic Test by TR-FRET (Time-resolved Fluorescence Resonance Energy Transfer).
# The test detects the phosphorylation of the substrate GFP-4EBP1 using a terbium-labelled antibody that is specific for the phospho-Thr46 epitope. Binding of the Tb-antibody to the phosphorylated GFP peptide allows the transfer of energy from Tb, excited at 340 nm, to GFP with an increase in the fluorescence emission of the GFP at 520 nm. […] The mixture is incubated for 30 minutes at room temperature. 10 μl of solution are taken up and the reaction is quenched by adding 10 μl of Tb-antibody solution (Invitrogen PV4757)/EDTA (2 nM Tb-Ac and 10 mM EDTA final). After 60 minutes at room temperature, the fluorescence at 490 nm, from the Tb emission, and at 520 nm, from the GFP emission, is measured in a BMG PHERAstar reader equipped with a Lanthascreen™ filter (excitation at 340 nm, emission at 490 and 520 nm). The results are given in the form of the 520/490 ratio.
# [3] = system: Akt-pS473 in U87MG cells; details: Homo sapiens, U-87 MG; for IC50: read-out: U87 Akt-pS473 % Inhibition or IC50, nM (IC50), U87MG cells
# [4] = system: U87MG tumour cells; assay: Test of in vitro proliferation of U87MG tumour cells; format: cell-based; details: Homo sapiens, U-87 MG, 72 h, U87MG cells, 72 hours; read-out: U87 Cell Proliferation IC50
# Protocol: Model 4: Test of in vitro Proliferation of U87MG Tumour Cells.
# The cell growth is determined with the reagent CellTiter 96 AQueous One Solution Cell Proliferation Assay from Promega (Cat. No. G3581).
# Chain of PI3Kα (p110α/p85α) (P42336 whole entry): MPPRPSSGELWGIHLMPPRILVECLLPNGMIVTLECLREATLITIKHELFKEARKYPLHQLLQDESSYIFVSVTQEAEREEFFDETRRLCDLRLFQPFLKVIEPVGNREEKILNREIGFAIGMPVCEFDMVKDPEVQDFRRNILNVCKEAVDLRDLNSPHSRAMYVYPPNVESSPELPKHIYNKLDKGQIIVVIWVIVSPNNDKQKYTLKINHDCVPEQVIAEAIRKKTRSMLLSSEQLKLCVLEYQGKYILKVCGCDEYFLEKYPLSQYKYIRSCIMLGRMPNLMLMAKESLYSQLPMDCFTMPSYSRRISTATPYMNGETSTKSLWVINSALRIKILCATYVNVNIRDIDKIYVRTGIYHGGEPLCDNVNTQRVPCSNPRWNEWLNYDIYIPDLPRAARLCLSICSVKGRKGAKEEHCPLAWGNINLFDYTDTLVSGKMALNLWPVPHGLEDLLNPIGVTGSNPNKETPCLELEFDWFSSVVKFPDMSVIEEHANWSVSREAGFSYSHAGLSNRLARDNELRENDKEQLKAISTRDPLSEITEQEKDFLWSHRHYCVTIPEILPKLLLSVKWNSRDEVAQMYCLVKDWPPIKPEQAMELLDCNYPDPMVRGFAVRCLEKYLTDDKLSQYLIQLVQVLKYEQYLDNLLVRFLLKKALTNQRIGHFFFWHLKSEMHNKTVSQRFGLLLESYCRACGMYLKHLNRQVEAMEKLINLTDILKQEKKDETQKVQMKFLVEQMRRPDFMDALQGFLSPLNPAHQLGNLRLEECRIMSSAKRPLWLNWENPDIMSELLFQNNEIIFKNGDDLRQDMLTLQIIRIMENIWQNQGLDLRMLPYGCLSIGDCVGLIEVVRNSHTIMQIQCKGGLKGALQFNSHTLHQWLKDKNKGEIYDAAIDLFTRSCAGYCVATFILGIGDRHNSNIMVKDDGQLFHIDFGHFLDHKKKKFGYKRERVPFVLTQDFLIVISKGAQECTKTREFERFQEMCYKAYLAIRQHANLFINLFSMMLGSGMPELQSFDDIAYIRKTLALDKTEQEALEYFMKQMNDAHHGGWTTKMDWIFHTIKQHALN
# Chain of PI3Kα (p110α/p85α) (P27986 whole entry partner): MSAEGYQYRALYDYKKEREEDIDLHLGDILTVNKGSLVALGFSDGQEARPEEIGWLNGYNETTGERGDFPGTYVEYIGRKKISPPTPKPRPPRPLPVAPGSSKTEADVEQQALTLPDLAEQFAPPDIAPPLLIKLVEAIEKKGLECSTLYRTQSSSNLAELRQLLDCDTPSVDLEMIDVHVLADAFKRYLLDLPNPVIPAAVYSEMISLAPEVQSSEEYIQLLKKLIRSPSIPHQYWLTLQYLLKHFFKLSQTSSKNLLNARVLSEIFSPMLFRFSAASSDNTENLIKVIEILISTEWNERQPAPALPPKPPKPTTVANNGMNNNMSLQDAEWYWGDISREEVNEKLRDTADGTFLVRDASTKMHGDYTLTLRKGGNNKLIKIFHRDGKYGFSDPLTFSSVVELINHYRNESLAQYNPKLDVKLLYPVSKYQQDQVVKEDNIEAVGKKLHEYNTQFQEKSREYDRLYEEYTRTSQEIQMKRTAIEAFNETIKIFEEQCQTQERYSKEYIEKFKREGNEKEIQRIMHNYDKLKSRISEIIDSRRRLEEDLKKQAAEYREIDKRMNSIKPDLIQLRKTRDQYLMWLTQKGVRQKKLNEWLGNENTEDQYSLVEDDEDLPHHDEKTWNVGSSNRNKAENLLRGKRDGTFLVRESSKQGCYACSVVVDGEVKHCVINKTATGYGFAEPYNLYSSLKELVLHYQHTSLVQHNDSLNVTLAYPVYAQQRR
# Chain of mTOR (human recombinant aa mTOR 1360-2549) (P42345 1360-2549): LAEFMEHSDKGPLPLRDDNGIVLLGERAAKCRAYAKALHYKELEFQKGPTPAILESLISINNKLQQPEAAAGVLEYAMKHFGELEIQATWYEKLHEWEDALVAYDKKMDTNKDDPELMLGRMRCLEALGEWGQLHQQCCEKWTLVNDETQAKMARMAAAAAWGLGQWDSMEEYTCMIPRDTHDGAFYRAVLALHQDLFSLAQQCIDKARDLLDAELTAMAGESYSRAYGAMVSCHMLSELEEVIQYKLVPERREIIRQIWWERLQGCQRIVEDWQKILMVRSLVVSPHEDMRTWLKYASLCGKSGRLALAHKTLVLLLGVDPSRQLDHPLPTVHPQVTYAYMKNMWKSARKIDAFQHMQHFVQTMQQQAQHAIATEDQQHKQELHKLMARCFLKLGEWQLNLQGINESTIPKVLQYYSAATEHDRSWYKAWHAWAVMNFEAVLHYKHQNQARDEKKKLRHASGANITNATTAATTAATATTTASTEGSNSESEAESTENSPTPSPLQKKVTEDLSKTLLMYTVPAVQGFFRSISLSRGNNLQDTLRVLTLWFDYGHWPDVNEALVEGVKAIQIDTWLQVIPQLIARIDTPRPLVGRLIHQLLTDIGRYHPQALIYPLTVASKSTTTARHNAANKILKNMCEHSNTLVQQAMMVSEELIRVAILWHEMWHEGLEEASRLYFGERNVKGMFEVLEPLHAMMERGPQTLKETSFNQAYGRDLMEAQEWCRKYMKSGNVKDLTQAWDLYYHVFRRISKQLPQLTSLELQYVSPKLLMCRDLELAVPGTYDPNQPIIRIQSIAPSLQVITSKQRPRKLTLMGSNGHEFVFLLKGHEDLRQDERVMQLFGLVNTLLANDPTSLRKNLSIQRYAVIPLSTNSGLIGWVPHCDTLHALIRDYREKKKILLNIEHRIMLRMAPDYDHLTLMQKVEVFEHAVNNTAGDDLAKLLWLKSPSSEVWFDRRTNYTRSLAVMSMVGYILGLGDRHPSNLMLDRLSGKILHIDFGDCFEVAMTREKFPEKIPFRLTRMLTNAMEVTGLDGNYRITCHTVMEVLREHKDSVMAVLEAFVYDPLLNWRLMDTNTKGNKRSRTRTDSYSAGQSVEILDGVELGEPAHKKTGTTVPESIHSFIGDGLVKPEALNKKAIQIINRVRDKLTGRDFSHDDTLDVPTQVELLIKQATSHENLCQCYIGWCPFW
SMILES,PI3Ka IC50 [1],IC50 [2],IC50 [3],IC50 [4],inhibition at 1 µM ([3]; read-out: U87 Akt-pS473 % Inhibition)
"CCN1CC(C)(C)Oc2nc(N3CC4CCC(C3)O4)nc(-c3ccc(NC(=O)NC)c(F)c3)c2C1=O [Example 1, 1-{4-[6-Ethyl-8,8-dimethyl-2-(8-oxa-3-azabicyclo[3.2.1]oct-3-yl)-5-oxo-5,6,7,8-tetrahydro-9-oxa-1,3,6-triazabenzocyclohepten-4-yl]-2-fluorophenyl}-3-methylurea]",8841 nM,23 nM,55 nM,197 nM,–
"CCN1CC(C)(C)Oc2nc(N3CCOC[C@@H]3C)nc(-c3ccc(NC(=O)NC)c(F)c3)c2C1=O [Example 2, 1-{4-[6-Ethyl-8,8-dimethyl-2-((S)-3-methylmorpholin-4-yl)-5-oxo-5,6,7,8-tetrahydro-9-oxa-1,3,6-triazabenzocyclohepten-4-yl]-2-fluorophenyl}-3-methylurea]",547 nM,22 nM,31 nM,142 nM,–
"CCNC(=O)Nc1ccc(-c2nc(N3CCOC[C@@H]3C)nc3c2C(=O)N(CC)CC(C)(C)O3)cc1F [Example 3, 1-Ethyl-3-{4-[6-ethyl-8,8-dimethyl-2-((S)-3-methylmorpholin-4-yl)-5-oxo-5,6,7,8-tetrahydro-9-oxa-1,3,6-triazabenzocyclohepten-4-yl]-2-fluorophenyl}urea]",2110 nM,18 nM,48 nM,242 nM,–
"CCNC(=O)Nc1ccc(-c2nc(N3CC4CCC(C3)O4)nc3c2C(=O)N(C[C@@H]2CCCN2)CC(C)(C)O3)cc1F [Example 4, 1-{4-[8,8-Dimethyl-2-(8-oxa-3-azabicyclo[3.2.1]oct-3-yl)-5-oxo-6-(S)-1-pyrrolidin-2-ylmethyl-5,6,7,8-tetrahydro-9-oxa-1,3,6-triazabenzocyclohepten-4-yl]-2-fluorophenyl}-3-ethylurea]",>10000 nM,721 nM,> 3000 nM,> 10000 nM,–
"CCNC(=O)Nc1ccc(-c2nc(N3CC4CCC(C3)O4)nc3c2C(=O)N(CCC(=O)O)CC(C)(C)O3)cc1 [Example 7, 3-[4-[4-(3-Ethylureido)phenyl]-8,8-dimethyl-2-(8-oxa-3-azabicyclo[3.2.1]oct-3-yl)-5-oxo-7,8-dihydro-5H-9-oxa-1,3,6-triazabenzocyclohepten-6-yl]propionic acid]",>10000 nM,17 nM,> 3000 nM,> 10000 nM,–
"CCNC(=O)Nc1ccc(-c2nc(N3CC4CCC(C3)O4)nc3c2C(=O)N(CCC(=O)N(C)C)CC(C)(C)O3)cc1 [Example 8, 3-[4-[4-(3-ethylureido)phenyl]-8,8-dimethyl-2-(8-oxa-3-azabicyclo[3.2.1]oct-3-yl)-5-oxo-7,8-dihydro-5H-9-oxa-1,3,6-triazabenzocyclohepten-6-yl]-N,N-dimethylpropionamide]",>10000 nM,44 nM,537 nM,3810 nM,–
"CCNC(=O)Nc1ccc(-c2nc(N3CC4CCC(C3)O4)nc3c2C(=O)N(CC)CC(C)(C)CO3)cc1 [Example 10, 1-Ethyl-3-{4-[6-ethyl-8,8-dimethyl-2-(8-oxa-3-azabicyclo[3.2.1]oct-3-yl)-5-oxo-6,7,8,9-tetrahydro-5H-10-oxa-1,3,6-triazabenzocycloocten-4-yl]phenyl}urea]",>10000 nM,344 nM,611 nM,8770 nM,–
"CCN1CC(C)(C)Oc2nc(N3CCOC[C@@H]3C)nc(-c3ccc(NC(=O)NC)cc3F)c2C1=O [Example 11, 1-{4-[6-ethyl-8,8-dimethyl-2-((S)-3-methylmorpholin-4-yl)-5-oxo-5,6,7,8-tetrahydro-9-oxa-1,3,6-triazabenzocyclohepten-4-yl]-3-fluorophenyl}-3-methylurea]",2300 nM,13 nM,61 nM,271 nM,–
"CCN1CC(C)(C)Oc2nc(N3CCOC[C@@H]3C)nc(-c3ccc(NC(=O)Nc4ccncc4)cc3F)c2C1=O [Example 12, 1-{4-[6-ethyl-8,8-dimethyl-2-((S)-3-methylmorpholin-4-yl)-5-oxo-5,6,7,8-tetrahydro-9-oxa-1,3,6-triazabenzocyclohepten-4-yl]-3-fluorophenyl}-3-pyridin-4-ylurea]",640 nM,17 nM,43 nM,121 nM,–
"CCN1CC(C)(C)Oc2nc(N3CC4CCC(C3)O4)nc(-c3ccc(NC(=O)Nc4ccc(N5CCN(C)CC5)cc4)c(F)c3)c2C1=O [Example 13, 1-{4-[6-ethyl-8,8-dimethyl-2-(8-oxa-3-azabicyclo[3.2.1]oct-3-yl)-5-oxo-5,6,7,8-tetrahydro-9-oxa-1,3,6-triazabenzocyclohepten-4-yl]-2-fluorophenyl}-3-[4-(4-methylpiperazin-1-yl)phenyl]urea]",6470 nM,132 nM,13 nM,32 nM,–
"CCNC(=O)Nc1ccc(-c2nc(N3CC4CCC(C3)O4)nc3c2C(=O)N(C2CCOCC2)CC(C)(C)O3)cc1 [Example 14, 1-{4-[8,8-dimethyl-2-(8-oxa-3-azabicyclo[3.2.1]oct-3-yl)-5-oxo-6-(tetrahydropyran-4-yl)-5,6,7,8-tetrahydro-9-oxa-1,3,6-triazabenzocyclohepten-4-yl]phenyl}-3-ethylurea]",>10000 nM,41 nM,458 nM,1420 nM,–
"Cc1cc(NC(=O)Nc2ccc(-c3nc(N4CC5CCC(C4)O5)nc4c3C(=O)N(C3CCOCC3)CC(C)(C)O4)cc2)no1 [Example 15, 1-{4-[8,8-dimethyl-2-(8-oxa-3-azabicyclo[3.2.1]oct-3-yl)-5-oxo-6-(tetrahydropyran-4-yl)-5,6,7,8-tetrahydro-9-oxa-1,3,6-triazabenzocyclohepten-4-yl]phenyl}-3-(5-methylisoxazol-3-yl)urea]",5300 nM,12 nM,76 nM,218 nM,–
"CCNC(=O)Nc1ccc(-c2nc(N3CCOCC3)nc3c2C(=O)NCC(C)(C)O3)cc1 [Example 94, 1-[4-(8,8-Dimethyl-2-morpholin-4-yl-5-oxo-5,6,7,8-tetrahydro-9-oxa-1,3,6-triazabenzocyclohepten-4-yl)phenyl]-3-ethylurea]",7320 nM,112 nM,> 10000 nM,–,–
"CCN1CC(C)(C)Oc2nc(N3CC4CCC(C3)O4)nc(-c3ccc(NC(=O)OC[C@@H](C)O)c(F)c3)c2C1=O [Example 239, {4-[6-Ethyl-8,8-dimethyl-2-(8-oxa-3-azabicyclo[3.2.1]oct-3-yl)-5-oxo-5,6,7,8-tetrahydro-9-oxa-1,3,6-triazabenzocyclohepten-4-yl]-2-fluorophenyl}carbamic acid (R)-2-hydroxypropyl ester]",–,1070 nM,–,> 10000 nM,38%
"CN1CC(C)(C)Oc2nc(N3CC4CCC(C3)O4)nc(-c3ccc(NC(=O)Nc4ccc(N5C6CCC5COC6)nc4)c(F)c3)c2C1=O [Example 245, 1-{2-Fluoro-4-[6,8,8-trimethyl-2-(8-oxa-3-azabicyclo[3.2.1]oct-3-yl)-5-oxo-5,6,7,8-tetrahydro-9-oxa-1,3,6-triazabenzocyclohepten-4-yl]phenyl}-3-[6-(3-oxa-8-azabicyclo[3.2.1]oct-8-yl)pyridin-3-yl]urea]",>10000 nM,63 nM,67 nM,–,–
